In patent US7622464B2, “Morpholinyl-urea derivatives for use in the treatment of inflammatory diseases” (Glaxo Group Limited, priority 2002, dated 2009):

Molecular target: eosinophils purified from human peripheral blood
Experiment: Eosinophil chemotaxis assay (eotaxin-induced)
Type: cell-based
Conditions: functional pKi; inhibition of human eosinophil chemotaxis to eotaxin (EC80 concentration)
Experimental: (b) Eosinophil Chemotaxis Assay.
Compounds were evaluated for their inhibitory effect on eosinophil chemotaxis. Eosinophils were purified from human peripheral blood by standard CD16 cell depletion using a Miltenyi cell separation column and a magnetic Super Macs magnet as previously described (Motegi & Kita, 1998; J. Immunology. 161:4340-6). Cells were re-suspended in RPMI 1640/10% FCS solution and incubated with calcein-AM (Molecular Probes) at 37° C. for 30 mins. Following incubation, the eosinophils were centrifuged at 400 g for 5 min and re-suspended in RPMI/FCS at 2.2 million/ml. Cells were then incubated in the presence of increasing concentration of compounds (1 pM to 30 μM) at 37° C. for 30 mins. For control responses cells were incubated with RPMI/FCS only. The agonist eotaxin (an EC80 concentration) was added to the lower chamber of a 96 well chemotaxis plate (5 μm filter: Receptor Technologies). Eosinophils (50 μl of 2 million/ml cells) were added to the top chamber of the filter plate and incubated at 37° C. for 45 mins. Cells remaining on top of the chemotaxis filter were removed and the number of eosinophils which had migrated were quantified by reading the plate on a fluorescent plate reader. Inhibition curves for the effect of compounds on eosinophil chemotaxis were analysed by fitting the data with a four parameter logistic equation. […]

fpKi | Structure (SMILES)
9.8 | CNC(=O)c1csc(CNC(=O)NC[C@H]2CN(Cc3ccc(Cl)c(Cl)c3)CCO2)c1 [Example 116, 5-{3-[(2S)-4-(3,4-Dichlorobenzyl)-morpholin-2-ylmethyl]-ureidomethyl}-thiophene-3-carboxylic acid methylamide]
9.2 | O=C(NCc1nnn(CC2CC2)n1)NC[C@H]1CN(Cc2ccc(Cl)c(Cl)c2)CCO1 [Example 97, 1-(2-Cyclopropylmethyl-2H-tetrazol-5-ylmethyl)-3-[(2S)-4-(3,4-dichlorobenzyl)morpholin-2-ylmethyl]-urea]
